Source: US10322180B2, “Pharmaceutical composition comprising modified hemoglobin-based therapeutic agent for cancer targeting treatment and diagnostic imaging” (Vision Global Holdings Ltd., priority 2013, dated 2019)

Tested on: Liver cancer cells, HepG2
Test: Live cell imaging uptake, liver cancer cells
Type: cell-based, human
Details: FIG. 23A-23C
Description: Cancer cells (e.g. HepG2 liver cancer cells) are seeded onto glass bottom microwell dishes (MatTek Corporation). Live cells at defined zooms (63×, 20×) are acquired using Zeiss Observer Z1 widefield microscope, equipped with atmospheric/temperature-controlled chamber and motorized stage for multi-positional acquisition. The incubation is performed in an enclosed live cell imaging system purged with 0.1% 02 and 5% CO2 (premixed). Cells are exposed to (1) Hb-5FU-alkyl(non-cleavable)-FL conjugate, labeled with one fluorescent dye and (2) Hb-5Fu-Dan-TAM conjugate, labeled with two fluorescent dyes; for 15 min prior to the acquisition of images every 3 min for a period of 2 h. Images are deconvolved and compacted into time-lapse movies using the MetaMorph software (Molecular Device).

Substance: fluorescent labeled hemoglobin: hemoglobin linked to one or more molecules of fluorescein (fluorescein 6-carboxysuccinimidyl ester, F-6-NHS)
- entry into liver cancer cells (fluorescent signal under microscope): can also enter into the cancer cells
- entry into liver cancer cells (fluorescent signal under microscope) (listed as fluorescent labeled modified hemoglobin): can enter into liver cancer cells successfully
